Results published in the supplement of paper PMC10307832.

Assays:
Experiment in all cases: relative viability (nuclei count vs DMSO), 5 days (fraction); higher = more cells survive
NCI-H2170 = tested on: NCI-H2170
Outline: (§1)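 A single step with final 0.05% Triton X-100, 1% formaldehyde and 1 ug/ml Hoechst fixed the cells and stained nuclei 5 days after treatment. Lung cancer cell lines in 1536-well plates had been treated by pin tool the day after seeding with one drug alone or a fixed anchor-drug dose plus five library-drug doses (not always all listed) in √10 steps, and nuclei were counted on 4× images. Relative viability is the ratio of nuclei in treated wells to nuclei in vehicle wells, taken as the median of duplicate plates.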

NCI-H1793 = tested on: NCI-H1793
Outline: as §1

NCI-H1734 = tested on: NCI-H1734
Outline: as §1

NCI-H2009 = tested on: NCI-H2009
Outline: as §1

EKVX = tested on: EKVX
Outline: as §1

NCI-H1395 = tested on: NCI-H1395
Outline: as §1

HARA = tested on: HARA
Outline: as §1

NCI-H2347 = tested on: NCI-H2347
Outline: as §1

NCI-H647 = tested on: NCI-H647
Outline: as §1

NCI-H2228 = tested on: NCI-H2228
Outline: as §1

HOP-62 = tested on: HOP-62
Outline: as §1

UMC-11 = tested on: UMC-11
Outline: as §1

NCI-H1355 = tested on: NCI-H1355
Outline: as §1

COR-L 105 = tested on: COR-L 105
Outline: as §1

PC-14 = tested on: PC-14
Outline: as §1

NCI-H1993 = tested on: NCI-H1993
Outline: as §1

COR-L23 = tested on: COR-L23
Outline: as §1

NCI-H358 = tested on: NCI-H358
Outline: as §1

NCI-H838 = tested on: NCI-H838
Outline: as §1

SK-MES-1 = tested on: SK-MES-1
Outline: as §1

NCI-H1755 = tested on: NCI-H1755
Outline: as §1

HCC-15 = tested on: HCC-15
Outline: as §1

CC1(C)CCC(c2ccc(Cl)cc2)=C(CN2CCN(c3ccc(C(=O)NS(=O)(=O)c4ccc(N[C@H](CCN5CCOCC5)CSc5ccccc5)c(S(=O)(=O)C(F)(F)F)c4)cc3)CC2)C1 [Navitoclax] + Cc1nc(NC(=O)N2CCC[C@H]2C(N)=O)sc1-c1ccnc(C(C)(C)C(F)(F)F)c1 [Alpelisib] (partner 2 µM)
relative viability (NCI-H2170; first compound 0.005 µM): 0.785 | relative viability (NCI-H2170; first compound 0.01581 µM): 0.872 | relative viability (NCI-H2170; first compound 0.05 µM): 0.927 | relative viability (NCI-H2170; first compound 0.1581 µM): 0.8 | relative viability (NCI-H2170; first compound 0.5 µM): 0.583 | relative viability (NCI-H1793; first compound 0.005 µM): 0.772 | relative viability (NCI-H1793; first compound 0.01581 µM): 0.799 | relative viability (NCI-H1793; first compound 0.05 µM): 0.574 | relative viability (NCI-H1793; first compound 0.1581 µM): 0.858 | relative viability (NCI-H1793; first compound 0.5 µM): 0.609 | relative viability (NCI-H1734; first compound 0.005 µM): 0.618 | relative viability (NCI-H1734; first compound 0.01581 µM): 0.779 | relative viability (NCI-H1734; first compound 0.1581 µM): 0.645 | relative viability (NCI-H1734; first compound 0.5 µM): 0.63 | relative viability (NCI-H2009; first compound 0.005 µM): 1.08 | relative viability (NCI-H2009; first compound 0.01581 µM): 1.16 | relative viability (NCI-H2009; first compound 0.05 µM): 1.15 | relative viability (NCI-H2009; first compound 0.1581 µM): 1.2 | relative viability (NCI-H2009; first compound 0.5 µM): 1.21 | relative viability (EKVX; first compound 0.005 µM): 0.828 | relative viability (EKVX; first compound 0.01581 µM): 1.15 | relative viability (EKVX; first compound 0.05 µM): 0.765 | relative viability (EKVX; first compound 0.1581 µM): 0.928 | relative viability (EKVX; first compound 0.5 µM): 0.833 | relative viability (NCI-H1395; first compound 0.005 µM): 1.05 | relative viability (NCI-H1395; first compound 0.01581 µM): 1.26 | relative viability (NCI-H1395; first compound 0.05 µM): 1.2 | relative viability (NCI-H1395; first compound 0.1581 µM): 1.19 | relative viability (NCI-H1395; first compound 0.5 µM): 1.12 | relative viability (HARA; first compound 0.005 µM): 0.657 | relative viability (HARA; first compound 0.01581 µM): 1.05 | relative viability (HARA; first compound 0.05 µM): 0.622 | relative viability (HARA; first compound 0.1581 µM): 0.881 | relative viability (HARA; first compound 0.5 µM): 0.898 | relative viability (NCI-H2347; first compound 0.005 µM): 0.997 | relative viability (NCI-H2347; first compound 0.01581 µM): 1.07 | relative viability (NCI-H2347; first compound 0.05 µM): 1.08 | relative viability (NCI-H2347; first compound 0.1581 µM): 0.927 | relative viability (NCI-H2347; first compound 0.5 µM): 1.2 | relative viability (NCI-H647; first compound 0.005 µM): 1.04 | relative viability (NCI-H647; first compound 0.01581 µM): 1.35 | relative viability (NCI-H647; first compound 0.05 µM): 1.48 | relative viability (NCI-H647; first compound 0.1581 µM): 1.14 | relative viability (NCI-H647; first compound 0.5 µM): 0.75 | relative viability (NCI-H2228; first compound 0.005 µM): 0.745 | relative viability (NCI-H2228; first compound 0.01581 µM): 0.725 | relative viability (NCI-H2228; first compound 0.05 µM): 0.602 | relative viability (NCI-H2228; first compound 0.1581 µM): 0.688 | relative viability (NCI-H2228; first compound 0.5 µM): 0.819 | relative viability (HOP-62; first compound 0.005 µM): 0.781 | relative viability (HOP-62; first compound 0.01581 µM): 1.06 | relative viability (HOP-62; first compound 0.05 µM): 0.869 | relative viability (HOP-62; first compound 0.1581 µM): 0.871 | relative viability (HOP-62; first compound 0.5 µM): 0.785 | relative viability (UMC-11; first compound 0.005 µM): 0.961 | relative viability (UMC-11; first compound 0.01581 µM): 1.02 | relative viability (UMC-11; first compound 0.1581 µM): 0.979 | relative viability (UMC-11; first compound 0.5 µM): 0.623 | relative viability (NCI-H1355; first compound 0.005 µM): 0.833 | relative viability (NCI-H1355; first compound 0.01581 µM): 0.934 | relative viability (NCI-H1355; first compound 0.05 µM): 0.846 | relative viability (NCI-H1355; first compound 0.1581 µM): 0.74 | relative viability (NCI-H1355; first compound 0.5 µM): 0.782 | relative viability (COR-L 105; first compound 0.005 µM): 0.878 | relative viability (COR-L 105; first compound 0.01581 µM): 1.22 | relative viability (COR-L 105; first compound 0.05 µM): 0.989 | relative viability (COR-L 105; first compound 0.1581 µM): 1.07 | relative viability (COR-L 105; first compound 0.5 µM): 0.978 | relative viability (PC-14; first compound 0.005 µM): 0.833 | relative viability (PC-14; first compound 0.01581 µM): 1.02 | relative viability (PC-14; first compound 0.05 µM): 0.92 | relative viability (PC-14; first compound 0.1581 µM): 0.926 | relative viability (PC-14; first compound 0.5 µM): 0.904 | relative viability (NCI-H1993; first compound 0.005 µM): 0.658 | relative viability (NCI-H1993; first compound 0.01581 µM): 0.732 | relative viability (NCI-H1993; first compound 0.05 µM): 0.682 | relative viability (NCI-H1993; first compound 0.1581 µM): 0.676 | relative viability (NCI-H1993; first compound 0.5 µM): 0.749 | relative viability (COR-L23; first compound 0.005 µM): 0.67 | relative viability (COR-L23; first compound 0.01581 µM): 0.807 | relative viability (COR-L23; first compound 0.05 µM): 0.697 | relative viability (COR-L23; first compound 0.1581 µM): 0.7 | relative viability (COR-L23; first compound 0.5 µM): 0.855 | relative viability (NCI-H358; first compound 0.005 µM): 0.817 | relative viability (NCI-H358; first compound 0.01581 µM): 0.955 | relative viability (NCI-H358; first compound 0.05 µM): 1.01 | relative viability (NCI-H358; first compound 0.1581 µM): 1.04 | relative viability (NCI-H358; first compound 0.5 µM): 0.856 | relative viability (NCI-H838; first compound 0.005 µM): 0.96 | relative viability (NCI-H838; first compound 0.01581 µM): 1.1 | relative viability (NCI-H838; first compound 0.05 µM): 1.12 | relative viability (NCI-H838; first compound 0.1581 µM): 1.03 | relative viability (NCI-H838; first compound 0.5 µM): 1.03 | relative viability (SK-MES-1; first compound 0.005 µM): 0.761 | relative viability (SK-MES-1; first compound 0.01581 µM): 1.01 | relative viability (SK-MES-1; first compound 0.05 µM): 0.922 | relative viability (SK-MES-1; first compound 0.1581 µM): 0.827 | relative viability (SK-MES-1; first compound 0.5 µM): 1.04 | relative viability (NCI-H1755; first compound 0.005 µM): 0.903 | relative viability (NCI-H1755; first compound 0.01581 µM): 1 | relative viability (NCI-H1755; first compound 0.05 µM): 0.906 | relative viability (NCI-H1755; first compound 0.1581 µM): 0.904 | relative viability (NCI-H1755; first compound 0.5 µM): 0.947 | relative viability (HCC-15; first compound 0.005 µM): 0.879 | relative viability (HCC-15; first compound 0.01581 µM): 0.957 | relative viability (HCC-15; first compound 0.05 µM): 0.88 | relative viability (HCC-15; first compound 0.1581 µM): 0.882 | relative viability (HCC-15; first compound 0.5 µM): 0.764
